Test results published in ChEMBL document CHEMBL1201862, “PubChem BioAssay data set” (2004).
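Following 48 hours of exposure in 96-well plates, responses at five concentrations were used to interpolate endpoints linearly. Here, GI50 denotes the concentration required for 50% inhibition of growth.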 Calls of active or inactive are those of the source. No stated cut-off is given here; in the data, active = GI50 up to about 1.1 µM and inactive = higher.

Experiments:
Assay in all cases: NCI anticancer screen, dose series, 48 h
[1] = tested on: SF-268
[2] = tested on: LOX IMVI
[3] = tested on: HCT-15
[4] = tested on: MOLT-4
[5] = tested on: SN12C
[6] = tested on: A549
[7] = tested on: OVCAR-8
[8] = tested on: TK-10
[9] = tested on: HL-60
[10] = tested on: RPMI-8226
[11] = tested on: SF-539
[12] = tested on: OVCAR-4
[13] = tested on: UACC-257
[14] = tested on: SW-620
[15] = tested on: HOP-92

Measured: GI50

CC1(c2cccc(C3CC4(CCC3=O)OCCCCO4)c2)OCCO1 (configuration not stated)
inactive: [1] > 100 µM | [2] > 100 µM | [4] > 100 µM | [5] > 100 µM | [6] > 100 µM | [7] > 100 µM | [8] > 100 µM | [9] > 100 µM | [10] > 100 µM | [11] > 100 µM | [12] > 100 µM | [13] > 100 µM | [14] > 100 µM
> 100 µM: [3]

COC1CC(O)C(OC(=O)c2ccccc2)C(C)O1 (configuration not stated)
> 100 µM: [3]
inactive: [15] > 100 µM | [1] > 100 µM | [2] > 100 µM | [4] > 100 µM | [5] > 100 µM | [6] > 100 µM | [7] > 100 µM | [8] > 100 µM | [9] > 100 µM | [10] > 100 µM | [11] > 100 µM | [12] > 100 µM | [13] > 10 µM | [14] > 100 µM

CC1(C)CCCC2(C)C3C(O)CC2(C)C(O)C31 (configuration not stated)
> 100 µM: [3]
inactive: [15] > 10 µM | [1] > 100 µM | [2] > 100 µM | [4] > 100 µM | [5] > 100 µM | [6] > 100 µM | [7] > 100 µM | [8] > 100 µM | [11] > 100 µM | [12] > 100 µM | [13] > 100 µM | [14] > 100 µM

COc1ccc(OC)c2cc(C3(C)SCCCS3)ccc12
88.1 µM: [3]
inactive: [1] > 100 µM | [2] > 100 µM | [4] 89.7 µM | [5] > 100 µM | [6] > 100 µM | [7] > 100 µM | [8] > 100 µM | [9] 59.3 µM | [10] 69.3 µM | [11] > 100 µM | [12] 60.3 µM | [13] > 100 µM | [14] > 100 µM

O=C(CC1C(=O)Nc2ccccc2S1(=O)=O)Nc1ccc(Cl)cc1 (configuration not stated)
inactive: [15] 16.9 µM | [1] 14.4 µM | [2] 16.9 µM | [4] 13.5 µM | [5] 34 µM | [6] 31.6 µM | [7] 26.4 µM | [8] 20 µM | [9] 12.1 µM | [10] 4.84 µM | [11] 13.8 µM | [12] 22.1 µM | [13] 14.9 µM | [14] 31.3 µM
31.6 µM: [3]

C=C1C(=O)C23CC1CCC2C12CO[C@@H]4OCC(C)(CC[C@@H]1OC3=O)C42 (some centres not stated)
2.9 µM: [3]
inactive: [15] 2.64 µM | [1] 6.32 µM | [4] 3.01 µM | [5] 8.32 µM | [6] 10.9 µM | [7] 2.02 µM | [8] 5.75 µM | [10] 1.57 µM | [11] 7.14 µM | [13] 4.98 µM | [14] 2.49 µM
active: [9] 0.569 µM

CCc1c(OC(C)=O)c2c(NC3OCC(OC(C)=O)C(OC(C)=O)C3OC(C)=O)nc(SC)nc2oc1=O (configuration not stated)
> 100 µM: [3]
inactive: [15] > 100 µM | [2] > 100 µM | [4] > 100 µM | [5] > 100 µM | [6] > 100 µM | [7] > 100 µM | [8] > 100 µM | [9] > 100 µM | [10] > 100 µM | [11] > 100 µM | [12] > 100 µM | [13] > 100 µM | [14] > 100 µM

O=c1oc2c3ccc4ccccc4c3n(CCCN3CCCCC3)c2c2ccccc12
inactive: [15] > 100 µM | [1] 59.2 µM | [2] > 100 µM | [4] 3.24 µM | [6] 34 µM | [7] 32.7 µM | [8] 42.1 µM | [9] 17.2 µM | [10] 32.1 µM | [11] 19.4 µM | [12] 45.9 µM | [13] 33.6 µM | [14] 5.62 µM
29.1 µM: [3]

Nc1nc(Cl)cc(NCC(O)CO)n1 (configuration not stated)
inactive: [15] > 100 µM | [1] > 100 µM | [2] > 100 µM | [4] > 100 µM | [5] > 100 µM | [6] > 100 µM | [7] > 100 µM | [8] > 100 µM | [9] > 100 µM | [10] > 100 µM | [11] > 100 µM | [12] > 100 µM | [13] > 100 µM | [14] > 100 µM
> 100 µM: [3]

O=C(Nc1cc(Cl)c(Cl)cc1Cl)C(=O)C(C(=O)c1ccc(Cl)c(Cl)c1)C1OC(=O)c2ccccc21 (configuration not stated)
active: [4] 0.187 µM
inactive: [15] 11 µM | [1] 15.7 µM | [2] 16.4 µM | [5] 21.6 µM | [6] 28.7 µM | [7] 10.7 µM | [8] 26.1 µM | [9] 18 µM | [10] 15.6 µM | [11] 2.67 µM | [12] 22.9 µM | [13] 13.9 µM | [14] 15.6 µM
19.6 µM: [3]

CC(C)(C)C1=Nc2c(Br)cc(C(C)(C)C)cc2C(C(F)(F)F)(C(F)(F)F)O1
inactive: [1] > 10 µM | [2] 16.2 µM | [4] 45.8 µM | [5] 38.4 µM | [6] 43.4 µM | [7] 80.5 µM | [8] > 100 µM | [9] 22.2 µM | [10] 25.3 µM | [11] 37.8 µM | [12] > 100 µM | [13] 48 µM | [14] 46.7 µM
43.7 µM: [3]

COC(=O)C1CCCC2(C1)OCCO2 (configuration not stated)
inactive: [15] > 100 µM | [1] > 100 µM | [2] > 100 µM | [4] > 100 µM | [5] > 100 µM | [6] > 100 µM | [7] > 100 µM | [8] > 100 µM | [10] > 100 µM | [11] > 100 µM | [12] > 100 µM | [13] > 100 µM | [14] > 100 µM
> 100 µM: [3]

CCOC(=O)C1([Se]c2ccccc2)CCCC1=O (configuration not stated)
inactive: [15] 25.5 µM | [1] 11.7 µM | [2] 13.1 µM | [4] 22.3 µM | [5] 15 µM | [6] 32.7 µM | [7] 16.8 µM | [8] 77.6 µM | [9] 4.78 µM | [10] 23.3 µM | [11] 19.6 µM | [12] 18.8 µM | [13] 43.7 µM
13.2 µM: [3]

O=C1c2ccccc2C2(O)N(c3ccccc3)C(=S)N(c3ccccc3)C12O (configuration not stated)
inactive: [1] > 100 µM | [2] > 100 µM | [4] > 100 µM | [5] > 100 µM | [6] > 100 µM | [7] > 100 µM | [8] > 100 µM | [10] > 100 µM | [11] > 100 µM | [12] > 100 µM | [13] > 100 µM | [14] > 100 µM
> 100 µM: [3]

COc1ccc(NC(=O)CC/C(CC(=O)C(C)(C)C)=N\NC(=O)C(N)=O)cc1
inactive: [15] > 100 µM | [1] > 100 µM | [2] > 100 µM | [4] > 100 µM | [5] > 100 µM | [6] > 100 µM | [7] > 100 µM | [9] > 100 µM | [11] > 100 µM | [12] > 100 µM | [13] > 100 µM | [14] > 100 µM
> 100 µM: [3]

N#C/C(=C1\OC(=N)C(c2ccccc2)C1=O)c1ccccc1 (configuration not stated)
22.1 µM: [3]
inactive: [15] 33.8 µM | [1] 48.3 µM | [2] 33.6 µM | [4] 18.7 µM | [5] 35 µM | [6] > 100 µM | [7] 27.9 µM | [8] 29.7 µM | [9] 23.4 µM | [10] 22.9 µM | [11] > 31.6 µM | [12] 40.1 µM | [13] 23 µM | [14] 23.1 µM

COc1ncn(C2C=C(CO)C(O)C2O)c(=O)n1 (configuration not stated)
inactive: [1] > 100 µM | [4] > 100 µM | [5] > 100 µM | [6] > 100 µM | [7] > 100 µM | [8] > 100 µM | [9] > 100 µM | [10] > 100 µM | [11] > 100 µM | [12] > 100 µM | [13] > 100 µM
> 100 µM: [3]
active: [14] < 0.01 µM

COc1ccc(-c2cc(=O)c3cc(C)c(C)c(C(=O)O)c3o2)cc1
> 100 µM: [3]
active: [15] < 0.01 µM
inactive: [4] > 100 µM | [5] > 100 µM | [6] > 100 µM | [7] > 100 µM | [9] > 100 µM | [10] > 100 µM | [11] > 100 µM | [12] > 100 µM | [13] > 100 µM | [14] > 100 µM

O=C(N/N=C/c1cccc(F)c1)c1ccncc1
inactive: [15] > 100 µM | [1] > 100 µM | [2] > 100 µM | [4] > 100 µM | [5] > 100 µM | [6] > 100 µM | [8] > 100 µM | [9] > 100 µM | [10] > 100 µM | [12] > 10 µM | [13] > 100 µM | [14] > 100 µM
> 100 µM: [3]

COc1ccccc1NC(=O)C1=C(C)NC(C)=C(C(=O)Nc2ccccc2OC)C1C1=CC=COC1
4.59 µM: [3]
inactive: [15] 25.9 µM | [1] 13.6 µM | [4] 13.3 µM | [5] 60.7 µM | [6] 18.5 µM | [7] 14.6 µM | [8] 16.5 µM | [9] 3.94 µM | [10] 13.2 µM | [11] 12.2 µM | [12] 30.5 µM | [13] 13.6 µM | [14] 6.7 µM
